Reference: patent publication US8703483B2, “Reagents and methods for using human embryonic stem cells to evaluate toxicity of pharmaceutical compounds and other chemicals” (Wisconsin Alumni Research Foundation, priority 2006, dated 2014)

What was measured:
[1] = supplementation prior to pregnancy; cited from earlier work
[2] = tested on: human embryonic stem cells; experiment: Metabolite profiling (LC/ESI-TOF mass spectrometry) of extracellular media of hESCs treated with alcohol; format: cell-based; conditions: for Putative kynurenine (exact neutral mass 208.0816) upregulation: day four
Source text: Binned masses were annotated in silico by querying the neutral masses in several different databases. These databases included Metlin, Biological Magnetic Resonance Data Bank (BMRB), NIST Chemistry WebBook, and the Human Metabolome Database. A mass was considered identified when its neutral mass was within 10 ppm of a known compound annotated in one of the databases listed above.

[3] = tested on: human embryonic stem cells; experiment: Viability and pluripotency (Oct-4, morphology) of hESCs after valproate exposure; format: cell-based; conditions: hESCs remained viable for multiple passages following exposure
[4] = tested on: H1/NIH code WA01 hES cells; experiment: Quantitative real-time PCR of epigenetic regulators and developmental genes in VPA-treated hESCs; format: cell-based, human; conditions: 1 mM VPA treated
Protocol: Treated and control H1/NIH code WA01 hES cells (passage 41) were analyzed by real-time PCR, and each treatment group was paired with a corresponding control group that received the standard growth media combination of CM+bFGF without VPA. In these studies, total cellular RNA was extracted from cells harvested at 24 hours (24 H), 4 days (4 D) and 8 days (EC) using the RNA Easy Kit (Qiagen, Valencia, Calif.) according to the manufacturer's instructions.
Expression levels of candidate test genes and a housekeeping gene (Beta-2-microglobulin) were evaluated by quantitative real-time PCR using a DNA Engine-Opticon 2 Detection System (MJ Research, Watertown, Mass.). The housekeeping gene acts as an internal control for normalization of RNA levels. The primers used for real-time PCR reactions were designed using Beacon Designer software (Premier Biosoft International, Palo Alto, Calif.). RNA was reverse transcribed using iScript cDNA Synthesis kit (Bio-Rad, Hercules, Calif.), wherein each cDNA synthesis reaction (20 μL) included 4 μL of 5× iScript reaction mix, 1 μL of iScript reverse transcriptase, and 2 μL of RNA. PCR was performed on cDNA in PCR reaction mixtures (25 μL) each containing 12.5 μL of Supermix (contains dNTPs, Taq DNA polymerase, SYBR Green I, and fluorescein), 250 nM forward primer, 250 nM reverse primer, and 1.6 μL RT-PCR products. Melting curve analysis and agarose gel electrophoresis were performed after real-time PCR reaction to monitor PCR specificity, wherein PCR products were detected with SYBR Green I using the iQ SYBR Green Supermix kit (Bio-Rad).
Quantifying the relative expression of real-time PCR was performed using the 2-ΔΔCt method (Livak & Schmittgen, 2001, Methods 25:402-8), and a general linear model was employed to fit the expression data. The PROC GLM procedure in SAS (version 8.2; SAS Institute, Cary, N.C.) was used to estimate least squares means in expression between treated and untreated hESCs and P<0.05 was considered statistically significant
Real-time PCR was conducted on samples from 24 hours (24 H), 4 days (4 D) and 8 days (EC) after VPA treatment to investigate expression levels of epigenetic regulators (such as DNA methyltransferase-1, DNMT-1, BMI-1, EED) and critical transcription factors responsible for embryonic patterning and neurodevelopment (RUNX2, BMP7, FGF8, CBX2, GLI3, SSH and SP8) in human embryonic stem cells.

[5] = tested on: undifferentiated human embryonic stem cells (H1 and H9 hESC); experiment: Metabolite profiling (LC/ESI-TOF-MS) of supernatant of hESCs treated with valproate; format: cell-based
Protocol: Masses were binned together if they were within 10 ppm and eluted within a 2 minutes retention time window. […] Binning of the data is required for statistical analysis and comparison of masses across the entire experiment. If multiple peaks with the same mass at the same retention time within a single sample were detected by Mass Hunter, they were averaged to assist data analysis.
As used herein, a mass was considered to be the same across LC/ESI-TOF-MS runs using a simple algorithm that first sorts the data by mass and retention time. […] If a series of measurements fit this definition it was considered to be from the same compound. If either the mass or the retention time varied by more than the limits listed above it was considered to be a different compound and given a new unique designation.

[6] = tested on: neuronal precursors derived from hESCs; experiment: Metabolite profiling of neural precursors derived from hESCs treated with valproate; format: cell-based, human; conditions: 1 mM valproate
Source text: Metabolomic assessment of teratogens on embryonic development is not limited exclusively to hESCs.

[7] = 0.3% alcohol, four days, p<0.05

Question: Which “Reduction of the incidence of spina bifida” value [1] does the source give for `Nc1nc2ncc(CNc3ccc(C(=O)N[C@@H](CCC(=O)O)C(=O)O)cc3)nc2c(=O)[nH]1` [Folic acid] here?
Answer: The value was 70%.

Question: With `CCO` [ethanol, reference compound] as the compound, how does the “8-methoxykynurenate (219.0532) change” value ([2]; 0.1% alcohol, four days, p<0.05) read?
Answer: Its value is “upregulated”.

Question: And the “Putative kynurenine (exact neutral mass 208.0816) upregulation” value ([2]; 0.1% treatment, p=0.001)?
Answer: The value was “three-fold”.

Question: And the “Compounds significantly different (p<0.05) in at least one treatment” value ([2]; 0.1 and 0.3% ethanol, of 49,481 mass signals)?
Answer: The value was 1,860 compounds.

Question: And the “5-hydroxy-L-tryptophan (220.0848) change in comparison to untreated controls” value [2, 7]?
Answer: Its value is “significant downregulation”.

Question: What about the “8-methoxykynurenate (219.0532) change” value [2, 7] of the same compound?
Answer: The value was “upregulated”.

Question: And the “Putative kynurenine (exact neutral mass 208.0816) upregulation” value ([2]; 0.3% treatment, p=0.002)?
Answer: Its value is “three-fold”.

Question: What does the source list for `CCCC(CCC)C(=O)O` [valproate]?
Answer: Effect of treatment on hESC viability [3]: not detrimental; BMI-1 gene expression level (target gene/Beta-2-Microglobulin) ([4]; 4 D): 0.112; BMP7 gene expression level (target gene/Beta-2-Microglobulin) ([4]; 4 D): 0.342; CBX2 gene expression level (target gene/Beta-2-Microglobulin) ([4]; 4 D): 1.1881; DNMT1 gene expression level (target gene/Beta-2-Microglobulin) ([4]; 4 D): 0.002; EED gene expression level (target gene/Beta-2-Microglobulin) ([4]; 4 D): 0.185; GLI3 gene expression level (target gene/Beta-2-Microglobulin) ([4]; 4 D): 0.774; H19 gene expression level (target gene/Beta-2-Microglobulin) ([4]; 4 D): 0.846; RUNX2 gene expression level (target gene/Beta-2-Microglobulin) ([4]; 4 D): 4.020; SP8 gene expression level (target gene/Beta-2-Microglobulin) ([4]; 4 D): 1.703; Shh gene expression level (target gene/Beta-2-Microglobulin) ([4]; 4 D): 0.533; BMI-1 gene expression level (target gene/Beta-2-Microglobulin) ([4]; 24 H): 0.252; BMP7 gene expression level (target gene/Beta-2-Microglobulin) ([4]; 24 H): 0.093; CBX2 gene expression level (target gene/Beta-2-Microglobulin) ([4]; 24 H): 0.245; DNMT1 gene expression level (target gene/Beta-2-Microglobulin) ([4]; 24 H): 0.624; EED gene expression level (target gene/Beta-2-Microglobulin) ([4]; 24 H): 0.342; FGF8 gene expression level (target gene/Beta-2-Microglobulin) ([4]; 24 H): 0.801; GLI3 gene expression level (target gene/Beta-2-Microglobulin) ([4]; 24 H): 0.015; H19 gene expression level (target gene/Beta-2-Microglobulin) ([4]; 24 H): 0.006; RUNX2 gene expression level (target gene/Beta-2-Microglobulin) ([4]; 24 H): 1.769; SP8 gene expression level (target gene/Beta-2-Microglobulin) ([4]; 24 H): 0.235; Shh gene expression level (target gene/Beta-2-Microglobulin) ([4]; 24 H): 0.562; BMI-1 gene expression level (target gene/Beta-2-Microglobulin) ([4]; EC (8 days)): 1.071; BMP7 gene expression level (target gene/Beta-2-Microglobulin) ([4]; EC (8 days)): 1.664; CBX2 gene expression level (target gene/Beta-2-Microglobulin) ([4]; EC (8 days)): 1.946; DNMT1 gene expression level (target gene/Beta-2-Microglobulin) ([4]; EC (8 days)): 1.124; EED gene expression level (target gene/Beta-2-Microglobulin) ([4]; EC (8 days)): 1.769; FGF8 gene expression level (target gene/Beta-2-Microglobulin) ([4]; EC (8 days)): 0.837; GLI3 gene expression level (target gene/Beta-2-Microglobulin) ([4]; EC (8 days)): 1.918; H19 gene expression level (target gene/Beta-2-Microglobulin) ([4]; EC (8 days)): 2.756; RUNX2 gene expression level (target gene/Beta-2-Microglobulin) ([4]; EC (8 days)): 2.434; SP8 gene expression level (target gene/Beta-2-Microglobulin) ([4]; EC (8 days)): 5.808; Compounds with statistically-significant differences in at least one time point ([5]; 22 μM valproate, of 3,241 mass signals (3%)): 110 compounds; Small molecules absent in treated groups ([5]; VPA, 24 hours, vs untreated controls): approximately 40; Compounds differentially secreted in treated neuronal precursors versus control [6]: Approximately 135 compounds
